Read-outs that look alike come from different tables or passages of the source.
Tests used:
[1] = system: SNU886; test: Cytotoxicity on hepatocellular carcinoma cell line SNU886; format: cell-based
Method: If not otherwise specified, IC50 values were measured by the following experimental methods:
a) Cells were plated for 24 hours, and then the compounds acted singly. 99 μL of growth medium was supplemented per well, and then 1 μL of 200× compound was added, gently shaken to ensure uniform mixing, and then placed in a 37° C., 5% CO2 incubator.
b) The cell plate was placed in the incubator for 72 hours.
b) 100 μL of CTG reagent (CelltiterGlo kit) was added to each well, the plate was placed in a rapid oscillator and shaken for 2 minutes, and then placed at room temperature for 30 minutes away from light.
The IC50 was calculated using GraphPad Prism 8 software and the IC50 (half inhibitory concentration) of the compounds was obtained using the following non-linear fitting formula: […]
Using the same experimental methods as described above, Compounds A, B and C were further tested for cytotoxicity against different hepatocellular carcinoma (HCC) cell lines SNU354, SNU886, MHCC97H and huH-1, and the results were shown in Table 2 below: […]

[2] = system: NCI-H2228; test: AKR1C3-dependent cytotoxicity, NSCLC cell line NCI-H2228; format: cell-based; conditions: Homo sapiens
Method: (§1) The tested compound was then added. The compound was dissolved in 100% DMSO at 200 times of the desired final test concentration. When the medicament was added, the compound was further diluted to 4 times of the desired final test concentration by using the complete medium. 50 μL of aliquots of the compound with specific concentration were added to the microwells containing 150 μL of medium, and then the final medicament concentration was obtained. […] The medicament was then washed. […] After the incubation was finished, the Alamar Blue was used to analyze and quantify the living cells.

[3] = system: NCI-H1792; test: AKR1C3-dependent cytotoxicity, NSCLC cell line NCI-H1792; format: cell-based; conditions: Homo sapiens
Method: as §1

[4] = system: HuPrime model GA6201 human gastric cancer; conditions: for Relative tumor volume (x ± S) / T/C (%) / TGI (%) / Tumor volume (x ± S): Day 38
Method: The test was divided into groups of the test drug Isocyclophosphamide 60 mg/kg group, the test drug AST-3424 5 mg/kg group, the test drug A compound 2.5 mg/kg and 5 mg/kg groups, and normal saline (pH 7.0-7.6) vehicle control group, a total of 5 groups, with 5 mice per group.
In the above dosing regimen, Isocyclophosphamide was designed based on the best dosing regimen with maximum safe dosage as recited in the document (Jessica D. Sun, Qian Liu, Dharmendra Ahluwalia, Damien J. Ferraro, Yan Wang, Don Jung, Mark D. Matteucci, and Charles P. Hart. Comparison of hypoxia-activated prodrug evofosfamide (TH-302) and ifosfamide in preclinical non-small cell lung cancer models [J]. Cancer Biology & Therapy, 2016, 17(4): 371-380).

[5] = system: HuPrime model LI6664 human liver cancer; test: In vivo pharmacodynamics, liver cancer LI6664 PDX model; set-up: species or system BALB/c nude mice; conditions: for relative tumor inhibition rate TGI (%): QWx3; for Relative tumor volume (x ± S) / Tumor volume (x ± S): mean ± standard error; for Tumor volume (x ± S): in mm³ (unit assumed)
Method: Experiment Instruction: BALB/c nude mice were subcutaneously inoculated with HuPrime® model LI6664 tumor blocks to establish a subcutaneous transplantation tumor model of human liver cancer. […] Among them, 7.5% anhydrous ethanol+7.5% polyoxyethylene (35) castor oil+85% glucose injection D5W (pH 7.4) vehicle control group was administered by tail vein once a week for 3 consecutive weeks; test drug AST-3424 0.3 mg/kg and 1 mg/kg groups were administered by tail vein injection once a day for 5 consecutive days, followed by 2 days off, followed by 2 weeks off, and then continuously administered for 5 consecutive days; the test drug AST-3424 1.25 mg/kg group was administered by tail vein injection once a week for 2 consecutive weeks, followed by one week off, and then continuously administered for 2 consecutive weeks, Compound A 0.5 mg/kg, 1.5 mg/kg, and 4.5 mg/kg groups were administered by tail vein injection once a week for three consecutive weeks, followed by 1 week off, and then administered for three consecutive weeks. […] The efficacy was evaluated according to the relative tumor inhibition rate TGI (%), and the safety was evaluated according to the change in body weight and the death of the animals.

## O=[N+]([O-])c1ccc(C(OP(=O)(N2CC2)N2CC2)C(F)(F)F)cc1Oc1ccc(-c2ccc(F)cc2)c(F)c1 (racemic) [Compound A]
[1]; IC50 ratio
  ratio A/B: 1.66
  ratio A/C: 0.75
[1]; SNU-886
  IC50: 628 nM
[2]
  IC50: 12.8 nM
[3]
  IC50: 375 nM
[4]; 2.5 mg/kg and 5 mg/kg i.v. QWx2
  relative tumor inhibition rate (TGI): more than 96%
[4]; 2.5 mg/kg i.v. QWx2
  Relative tumor volume (x ± S): 0.29 ± 0.08
  T/C (%): 3.15%
  TGI (%): 96.85%
  Tumor volume (x ± S): 28.69 ± 8.2
[4]; 2.5 mg/kg i.v., 0 day
  Tumor volume: 94.61 mm^3
[4]; 2.5 mg/kg i.v., 3 days
  Tumor volume: 120.19 mm^3
[4]; 2.5 mg/kg i.v., 7 days
  Tumor volume: 118.33 mm^3
[4]; 2.5 mg/kg i.v., 10 days
  Tumor volume: 118.65 mm^3
[4]; 2.5 mg/kg i.v., 14 days
  Tumor volume: 96.08 mm^3
[4]; 2.5 mg/kg i.v., 17 days
  Tumor volume: 76.14 mm^3
[4]; 2.5 mg/kg i.v., 21 days
  Tumor volume: 71.72 mm^3
[4]; 2.5 mg/kg i.v., 24 days
  Tumor volume: 57.94 mm^3
[4]; 2.5 mg/kg i.v., 28 days
  Tumor volume: 45.51 mm^3
[4]; 2.5 mg/kg i.v., 31 days
  Tumor volume: 43.44 mm^3
[4]; 2.5 mg/kg i.v., 35 days
  Tumor volume: 32.04 mm^3
[4]; 2.5 mg/kg i.v., 38 days
  Tumor volume: 28.69 mm^3
[4]; 2.5 mg/kg i.v., 42 days
  Tumor volume: 23.49 mm^3
[4]; 2.5 mg/kg i.v., 45 days
  Tumor volume: 25.00 mm^3
[4]; 2.5 mg/kg i.v., 49 days
  Tumor volume: 17.72 mm^3
[4]; Compound A 5 mg/kg i.v. QWx2
  Relative tumor volume (x ± S): 0.19 ± 0.08
  T/C (%): 2.04%
  TGI (%): 97.96%
  Tumor volume (x ± S): 19.97 ± 10.18
[4]; Compound A 5 mg/kg i.v., 0 day
  Tumor volume: 94.36 mm^3
[4]; Compound A 5 mg/kg i.v., 3 days
  Tumor volume: 118.42 mm^3
[4]; Compound A 5 mg/kg i.v., 7 days
  Tumor volume: 101.91 mm^3
[4]; Compound A 5 mg/kg i.v., 10 days
  Tumor volume: 97.17 mm^3
[4]; Compound A 5 mg/kg i.v., 14 days
  Tumor volume: 74.20 mm^3
[4]; Compound A 5 mg/kg i.v., 17 days
  Tumor volume: 59.77 mm^3
[4]; Compound A 5 mg/kg i.v., 21 days
  Tumor volume: 46.21 mm^3
[4]; Compound A 5 mg/kg i.v., 24 days
  Tumor volume: 44.03 mm^3
[4]; Compound A 5 mg/kg i.v., 28 days
  Tumor volume: 38.50 mm^3
[4]; Compound A 5 mg/kg i.v., 31 days
  Tumor volume: 35.92 mm^3
[4]; Compound A 5 mg/kg i.v., 35 days
  Tumor volume: 22.70 mm^3
[4]; Compound A 5 mg/kg i.v., 38 days
  Tumor volume: 19.97 mm^3
[4]; Compound A 5 mg/kg i.v., 42 days
  Tumor volume: 5.05 mm^3
[4]; Compound A 5 mg/kg i.v., 45 days
  Tumor volume: 11.14 mm^3
[4]; Compound A 5 mg/kg i.v., 49 days
  Tumor volume: 9.96 mm^3
[4]; GA6201 model, tested doses
  body weight change / toxic effects: no effect on the body weights
[5]; 0.5 mg/kg i.v. QWx3, 1 week off, Day 28
  relative tumor inhibition rate TGI (%): 34.07%
[5]; 1.5 mg/kg i.v. QWx3, 1 week off, Day 28
  relative tumor inhibition rate TGI (%): 66.57%
[5]; 4.5 mg/kg i.v. QWx3, 1 week off, Day 28
  relative tumor inhibition rate TGI (%): 77.05%
[5]; Compound A 0.5 mg/kg, Day 28
  T/C (%): 65.93%
  Relative tumor volume (x ± S): 8.51 ± 2.07
  Tumor volume (x ± S): 920.46 ± 215.96
[5]; Compound A 1.5 mg/kg, Day 28
  T/C (%): 33.43%
  Relative tumor volume (x ± S): 4.31 ± 0.54
  Tumor volume (x ± S): 466.31 ± 77.63
[5]; Compound A 4.5 mg/kg, Day 28
  T/C (%): 22.95%
  Relative tumor volume (x ± S): 2.96 ± 0.27
  Tumor volume (x ± S): 320.72 ± 40.03
[5]; Group6, Compound A 0.5 mg/kg, Day 0
  Size of tumor volume: 108.44 mm^3
[5]; Group6, Compound A 0.5 mg/kg, Day 4
  Size of tumor volume: 201.76 mm^3
[5]; Group6, Compound A 0.5 mg/kg, Day 7
  Size of tumor volume: 277.38 mm^3
[5]; Group6, Compound A 0.5 mg/kg, Day 11
  Size of tumor volume: 301.39 mm^3
[5]; Group6, Compound A 0.5 mg/kg, Day 14
  Size of tumor volume: 347.30 mm^3
[5]; Group6, Compound A 0.5 mg/kg, Day 18
  Size of tumor volume: 434.18 mm^3
[5]; Group6, Compound A 0.5 mg/kg, Day 21
  Size of tumor volume: 518.23 mm^3
[5]; Group6, Compound A 0.5 mg/kg, Day 25
  Size of tumor volume: 746.19 mm^3
[5]; Group6, Compound A 0.5 mg/kg, Day 28
  Size of tumor volume: 920.46 mm^3
[5]; Group6, Compound A 0.5 mg/kg, Day 32
  Size of tumor volume: 1036.44 mm^3
[5]; Group6, Compound A 0.5 mg/kg, Day 35
  Size of tumor volume: 1258.05 mm^3
[5]; Group6, Compound A 0.5 mg/kg, Day 39
  Size of tumor volume: 1426.66 mm^3
[5]; Group6, Compound A 0.5 mg/kg, Day 42
  Size of tumor volume: 1661.81 mm^3
[5]; Group6, Compound A 0.5 mg/kg, Day 46
  Size of tumor volume: 2037.97 mm^3
[5]; Group6, Compound A 0.5 mg/kg, Day 49
  Size of tumor volume: 1746.71 mm^3
[5]; Group7, Compound A 1.5 mg/kg, Day 0
  Size of tumor volume: 108.25 mm^3
[5]; Group7, Compound A 1.5 mg/kg, Day 4
  Size of tumor volume: 127.56 mm^3
[5]; Group7, Compound A 1.5 mg/kg, Day 7
  Size of tumor volume: 152.00 mm^3
[5]; Group7, Compound A 1.5 mg/kg, Day 11
  Size of tumor volume: 161.35 mm^3
[5]; Group7, Compound A 1.5 mg/kg, Day 14
  Size of tumor volume: 206.44 mm^3
[5]; Group7, Compound A 1.5 mg/kg, Day 18
  Size of tumor volume: 225.71 mm^3
[5]; Group7, Compound A 1.5 mg/kg, Day 21
  Size of tumor volume: 287.02 mm^3
[5]; Group7, Compound A 1.5 mg/kg, Day 25
  Size of tumor volume: 398.93 mm^3
[5]; Group7, Compound A 1.5 mg/kg, Day 28
  Size of tumor volume: 466.31 mm^3
[5]; Group7, Compound A 1.5 mg/kg, Day 32
  Size of tumor volume: 543.94 mm^3
[5]; Group7, Compound A 1.5 mg/kg, Day 35
  Size of tumor volume: 643.84 mm^3
[5]; Group7, Compound A 1.5 mg/kg, Day 39
  Size of tumor volume: 805.84 mm^3
[5]; Group7, Compound A 1.5 mg/kg, Day 42
  Size of tumor volume: 1060.20 mm^3
[5]; Group7, Compound A 1.5 mg/kg, Day 46
  Size of tumor volume: 1179.82 mm^3
[5]; Group7, Compound A 1.5 mg/kg, Day 49
  Size of tumor volume: 1407.10 mm^3
[5]; Group8, Compound A 4.5 mg/kg, Day 0
  Size of tumor volume: 108.26 mm^3
[5]; Group8, Compound A 4.5 mg/kg, Day 4
  Size of tumor volume: 125.30 mm^3
[5]; Group8, Compound A 4.5 mg/kg, Day 7
  Size of tumor volume: 142.58 mm^3
[5]; Group8, Compound A 4.5 mg/kg, Day 11
  Size of tumor volume: 150.82 mm^3
[5]; Group8, Compound A 4.5 mg/kg, Day 14
  Size of tumor volume: 176.69 mm^3
[5]; Group8, Compound A 4.5 mg/kg, Day 18
  Size of tumor volume: 180.29 mm^3
[5]; Group8, Compound A 4.5 mg/kg, Day 21
  Size of tumor volume: 201.42 mm^3
[5]; Group8, Compound A 4.5 mg/kg, Day 25
  Size of tumor volume: 282.76 mm^3
[5]; Group8, Compound A 4.5 mg/kg, Day 28
  Size of tumor volume: 320.72 mm^3
[5]; Group8, Compound A 4.5 mg/kg, Day 32
  Size of tumor volume: 339.73 mm^3
[5]; Group8, Compound A 4.5 mg/kg, Day 35
  Size of tumor volume: 360.45 mm^3
[5]; Group8, Compound A 4.5 mg/kg, Day 39
  Size of tumor volume: 391.38 mm^3
[5]; Group8, Compound A 4.5 mg/kg, Day 42
  Size of tumor volume: 417.79 mm^3
[5]; Group8, Compound A 4.5 mg/kg, Day 46
  Size of tumor volume: 451.01 mm^3
[5]; Group8, Compound A 4.5 mg/kg, Day 49
  Size of tumor volume: 538.20 mm^3
[5]; treatment period, tested doses
  weight loss: no weight loss

— patent US20260159536A1, “AKR1C3-ACTIVATED DNA ALKYLATING AGENT, AND MEDICAL APPLICATION THEREOF” (ASCENTAWITS PHARMACEUTICALS, LTD., priority 2021, published 2026)
